Reference: patent US20020006920A1, “Arylsulfonylamino hydroxamic acid derivatives” (priority 1999, published 2002)

| Structure (SMILES) | melting point |
| --- | --- |
| O=C(NO)C1(NS(=O)(=O)c2ccc(Oc3ccc(F)cc3)cc2)CCCCC1 [Example 4, 1-[4-(4-Fluorophenoxy)benzenesulfonylamino]cyclohexane-1-carboxylic acid hydroxyamide] | 174 °C |
| O=C(NO)C1(NS(=O)(=O)c2ccc(Oc3ccc(F)cc3)cc2)CC1 [Example 5, 1-[4-(4-Fluorophenoxy)benzenesulfonylamino]cyclopropane-1-carboxylic acid hydroxyamide] | 184 °C |
| COc1ccc(S(=O)(=O)NC(C)(C)C(=O)NO)cc1 [Example 9, N-Hydroxy-2-(4-methoxybenzenesulfonylamino)-2-methylpropionamide] | 122 to 125 °C |
| CC(C)CCOc1ccc(S(=O)(=O)NC(C)(C)C(=O)NO)cc1 [Example 11, N-Hydroxy-2-methyl-2-[4-(3-methylbutoxy)benzenesulfonylamino]-propionamide] | 126.5 to 128 °C |
| CC(C)(NS(=O)(=O)c1ccc(OCCC2CCCC2)cc1)C(=O)NO [Example 12, 2-[4-(2-Cyclopentylethoxy)benzenesulfonylamino]-N-hydroxy-2-methyl-propionamide] | 126 to 127 °C |
| CC(C)(NS(=O)(=O)c1ccc(-c2ccccn2)s1)C(=O)NO [Example 13, N-Hydroxy-2-methyl-2-(5-pyridin-2-ylthiophene-2-sulfonylamino)propionamide] | 165 to 166 °C |
